Results from ChEMBL document CHEMBL3297723, “Ethyl 1,8-naphthyridone-3-carboxylates downregulate human papillomavirus-16 E6 and E7 oncogene expression” (J Med Chem, 2014).
The source made the active and inactive calls. No cut-off for these calls is given here.

What was measured:
P21 [1] = test: Inhibition of HPV-16 LCR transcriptional activity in human P21 cells at 30 uM after 24 hrs by luciferase reporter gene assay; type: cell-based; conditions: Alphapapillomavirus 9
[2] = (§1) Inhibition of HPV-16 LCR transcriptional activity in human P21 cells after 24 hrs by luciferase reporter gene assay; type: cell-based; conditions: Alphapapillomavirus 9, P21, 24 h
[3] = Cytotoxicity against human P21 cells assessed as inhibition of cell viability after 24 hrs by CellTiter96 assay; type: cell-based
[4] = Selectivity index, ratio of CC50 for human P21 cells to IC50 for HPV-16 LCR transcriptional activity in human P21 cells; type: functional
[5] = Cytotoxicity against human CaSki cells assessed as inhibition of cell proliferation at 10 uM after 24 hrs by CellTiter96 assay; type: cell-based; conditions: ca-ski
P21 [6] = test: Inhibition of HPV-16 LCR transcriptional activity in human P21 cells at 100 uM after 24 hrs by luciferase reporter gene assay; type: cell-based; conditions: Alphapapillomavirus 9
P21 [7] = test: as §1; type: cell-based; conditions: Alphapapillomavirus 9
[8] = Drug uptake in human CaSki cells at 10 uM after 16 hrs by reverse-phase HPLC analysis; type: ADME, cell-based; conditions: ca-ski
[9] = Drug uptake in human CaSki cells at 10 uM after 1 hr by reverse-phase HPLC analysis; type: ADME, cell-based; conditions: ca-ski
[10] = system: Human immunodeficiency virus 1; test: Antiviral activity against HIV-1 3B infected in human MT4 cells assessed as protection against virus-induced cytopathogenicity; type: functional, organism-based
Rotavirus = test: Antiviral activity against HRV infected in […] cells assessed as protection against virus-induced cytopathogenicity; type: functional, organism-based
Human orthopneumovirus = test: Antiviral activity against RSV infected in human Hep2 cells assessed as protection against virus-induced cytopathogenicity; type: functional, organism-based; conditions: human respiratory syncytial virus; HEp-2
Human alphaherpesvirus 2 = test: Antiviral activity against HSV2 infected in african green monkey Vero cells assessed as protection against virus-induced cytopathogenicity; type: functional, organism-based
[11] = system: Vesicular stomatitis virus; test: Antiviral activity against VSV infected in african green monkey Vero cells assessed as protection against virus-induced cytopathogenicity; type: functional, organism-based
Ca-Ski [12] = test: Inhibition of LCR-mediated E6 mRNA expression in HPV-16-positive human CaSki cells at 10 uM after 24 hrs by RT-PCR analysis; type: cell-based; conditions: Alphapapillomavirus 9
Ca-Ski [13] = test: Inhibition of LCR-mediated E7 mRNA expression in HPV-16-positive human CaSki cells at 10 uM after 24 hrs by RT-PCR analysis; type: cell-based; conditions: Alphapapillomavirus 9

Row | SMILES | inhibition (P21 [1]) [%] | IC50 [2] [µM] | CC50 at 24 h [3] [µM] | Ratio CC50/IC50 [4] | Activity [5] | inhibition (P21 [6]) [%] | inhibition (P21 [7]) | Drug uptake [8] [%] | Drug uptake [9] | Activity [10] | Activity (Rotavirus) | Activity (Human orthopneumovirus) | Activity (Human alphaherpesvirus 2) | Activity [11] | inhibition (Ca-Ski [12]) [%] | inhibition (Ca-Ski [13]) [%]
1 | CCOC(=O)c1cn(Cc2ccccc2)c2nc(N3CCN(c4nc5ccccc5s4)CC3)ccc2c1=O | 98.2 | 0.23 | 61.7 | 268 | Non-toxic | 98.1 |  |  |  |  |  |  |  |  |  | 
2 | CCOC(=O)c1cn(Cc2cccc(Cl)c2F)c2nc(N3CCN(c4ccccn4)CC3)ccc2c1=O | 89.2 | 1.12 | > 100 | >89.2 | Non-toxic | 93.1 | Dose-dependent effect |  |  |  |  |  |  |  |  | 
3 | CCOC(=O)c1cn(Cc2ccccn2)c2nc(N3CCN(c4nc5ccccc5s4)CC3)ccc2c1=O | 63.1 | 5.3 | 34.6 | 6.5 |  | 73.4 |  |  |  |  |  |  |  |  |  | 
4 | CCOC(=O)c1cn(Cc2ccccc2F)c2nc(N3CCN(c4nc5ccccc5s4)CC3)ccc2c1=O | 88.6 | 4.18 | > 100 | >23.9 |  | 75.6 |  |  |  |  |  |  |  |  |  | 
5 | O=C(O)c1cn(Cc2cccc(Cl)c2F)c2nc(N3CCN(c4nccs4)CC3)ccc2c1=O | 7.39 |  |  |  | Non-toxic | 2.1 |  | 63 | 20% |  |  |  |  |  |  | 
6 | CCOC(=O)c1cn(CCc2ccc(Cl)cc2)c2nc(N3CCN(c4nc5ccccc5s4)CC3)ccc2c1=O | 49.6 |  |  |  |  | 50.4 |  |  |  |  |  |  |  |  |  | 
7 | CCOC(=O)c1cn(Cc2ccc3[nH]ccc3c2)c2nc(N3CCN(c4nc5ccccc5s4)CC3)ccc2c1=O | 93.6 | 0.13 | > 100 | >769 | Non-toxic | 90.2 |  |  |  |  |  |  |  |  |  | 
8 | CCOC(=O)c1cn(Cc2nc3ccccc3[nH]2)c2nc(N3CCN(c4nc5ccccc5s4)CC3)ccc2c1=O | 38.3 |  |  |  |  | 45.5 |  |  |  |  |  |  |  |  |  | 
9 | CCOC(=O)c1cn(Cc2cccc(Cl)c2F)c2nc(N3CCN(c4nc5ccccc5s4)CC3)ccc2c1=O | 82.8 | 0.26 | > 100 | >385 | Non-toxic | 94.9 |  | 15 | Not Active | inactive | inactive | Active | Active | Active |  | 
10 | O=C(O)c1cn(Cc2ccccn2)c2nc(N3CCN(c4nc5ccccc5s4)CC3)ccc2c1=O | 24 |  |  |  |  | 61 |  |  |  |  |  |  |  |  |  | 
11 | CCOC(=O)c1cn(Cc2cccc(Cl)c2F)c2nc(N3CCN(c4nccs4)CC3)ccc2c1=O | 98 | 1.21 | 25.3 | 20.9 | Non-toxic | 99.7 |  | 70 | Not Active |  |  |  |  |  | 71.7 | 72.7
12 | CCOC(=O)c1cn(CCc2ccccn2)c2nc(N3CCN(c4nc5ccccc5s4)CC3)ccc2c1=O | 87 | 1.05 | 17.1 | 16.2 |  | 100 |  |  |  |  |  |  |  |  |  | 
13 | O=C(O)c1cn(Cc2ccccc2)c2nc(N3CCN(c4nc5ccccc5s4)CC3)ccc2c1=O | 100 | 4.55 | 69.6 | 15.2 | Non-toxic | 100 |  |  |  |  |  |  |  |  |  | 
14 | CCOC(=O)c1cn(Cc2cccc(Cl)c2)c2nc(N3CCN(c4nc5ccccc5s4)CC3)ccc2c1=O | 96 | 2.62 | > 100 | >38.1 | Non-toxic | 96 |  |  |  |  |  |  |  |  |  | 
15 | O=C(O)c1cn(Cc2cccc(Cl)c2F)c2nc(N3CCN(c4nc5ccccc5s4)CC3)ccc2c1=O | 38.3 |  |  |  | Non-toxic | 56 |  | 35 | 20% |  |  |  |  |  |  | 
16 | O=C(O)c1cn(Cc2cccc(Cl)c2F)c2nc(N3CCN(c4ccc5ccccc5n4)CC3)ccc2c1=O | 99.3 | 2.86 | 17.6 | 6.1 | Non-toxic | 100 |  | 38 | 20% |  |  |  |  |  |  | 
17 | CCOC(=O)c1cn(Cc2ccc(C(F)(F)F)cc2)c2nc(N3CCN(c4nc5ccccc5s4)CC3)ccc2c1=O | 67.5 | 10.9 | 78.2 | 7.16 |  | 89.3 |  |  |  |  |  |  |  |  |  | 
18 | CCOC(=O)c1cn(Cc2cccc(Cl)c2F)c2nc(N3CCN(c4nc5ccccc5o4)CC3)ccc2c1=O | 88.1 | 0.39 | > 100 | >256 |  | 83.9 |  |  |  |  |  |  |  |  |  | 
19 | O=C(O)c1cn(CCc2ccccn2)c2nc(N3CCN(c4nc5ccccc5s4)CC3)ccc2c1=O | 0 |  |  |  |  | 0 |  |  |  |  |  |  |  |  |  | 
20 | O=C(O)c1cn(Cc2cccc(Cl)c2F)c2nc(N3CCN(c4ccccn4)CC3)ccc2c1=O | 30.5 |  |  |  | Non-toxic | 25.8 |  |  |  |  |  |  |  |  |  | 
21 | CCOC(=O)c1cn(Cc2ccc(Cl)cc2)c2nc(N3CCN(c4nc5ccccc5s4)CC3)ccc2c1=O | 90 | 2.37 | > 100 | >42.1 | Non-toxic | 90 |  |  |  |  |  |  |  |  |  | 
22 | CCOC(=O)c1cn(Cc2cccc(Cl)c2F)c2nc(N3CCN(c4ccc5ccccc5n4)CC3)ccc2c1=O | 92.3 | 0.21 | 59.3 | 282 | Non-toxic | 93.7 |  | 40 | Not Active |  |  |  |  |  | 61.5 | 57.4
